The source of these data is patent publication US20100305047A1, “CYCLOSPORIN DERIVATIVES FOR ENHANCING THE GROWTH OF HAIR” (ALLERGAN, INC., priority 2009, published 2010).

Starred links: 1 amine or outer side, 2 acyl side, 3 side chain; linkers in the order of their positions; H or OH if unused. Non-standard residues stand in square brackets, D forms with d. Residues, ends and D or L forms follow the SMILES beside them. ξ: configuration not given here. ξNMeBmt = C/C=C/C[C@@H](C)[C@@H](O)C(NC)C(=O)O; X1 = CN(C(SCCNC(=N)N)C(=O)[*:2])[*:1]; NMeL = CN[C@@H](CC(C)C)C(=O)O; dNMeL = CN[C@H](CC(C)C)C(=O)O; NMeV = CN[C@H](C(=O)O)C(C)C; ξNMeL = CNC(CC(C)C)C(=O)O; dAbu = CC[C@@H](N)C(=O)O

The subject of the assay is lashes and hair around the eyes of patients. Description: In vivo treatment: appearance of lashes and hair around the eyes of patients treated in only one eye. Also on record: species or system human. The settings on record: glaucoma patients, one drop daily to one eye. As to the method: A study is initiated to systematically evaluate the appearance of lashes and hair around the eyes of patients who are administering 3-[(2-Guanidyl)-ethylthio]-cyclosporin A (the cyclosporine A derivative of Example A, above) in only one eye. The study involves 10 subjects, 5 male, 5 female, average age 70 years, (ranging from 50-94 years). All patients have glaucoma. Each subject is treated daily by the topical application of one drop of the composition of Example 3, below, to provide 3-[(2-Guanidyl)-ethylthio]-cyclosporin A at a dosage of 1.5 µg/ml/eye/day, to the region of one eye by instilling the drop onto the surface of the eye. The region of the fellow control eye is not treated with 3-[(2-Guanidyl)-ethylthio]-cyclosporin A and serves as a control. The mean duration of exposure to 3-[(2-Guanidyl)-ethylthio]-cyclosporin A prior to assessing the parameter of lash growth between the control and study eye is 129 days (range 90-254 days). Observations are made under high magnification at the slit lamp biomicroscope. Documentation of differences between the control and treatment areas is accomplished using a camera specially adapted for use with the slit lamp biomicroscope.

Setting [1] is: 1.5 µg/ml/eye/day, mean exposure 129 days, vs untreated fellow eye, slit lamp biomicroscope.

Take `C/C=C/C[C@@H](C)[C@@H](O)C1C(=O)N[C@H](CC)C(=O)N(C)C(SCCNC(=N)N)C(=O)N(C)[C@@H](CC(C)C)C(=O)N[C@H](C(C)C)C(=O)N(C)C(CC(C)C)C(=O)N[C@H](C)C(=O)N[C@@H](C)C(=O)N(C)[C@H](CC(C)C)C(=O)N(C)[C@H](CC(C)C)C(=O)N(C)[C@@H](C(C)C)C(=O)N1C` (stereo partly shown) [3-[(2-Guanidyl)-ethylthio]-cyclosporin A] (cyclo(A[dNMeL][dNMeL][NMeV][ξNMeBmt][dAbu][X1][NMeL][dV][ξNMeL][dA])): the “Increased growth of vellus hair on lids” value (1.5 µg/ml/eye/day, mean exposure 129 days, vs untreated fellow eye, areas below and lateral to the lower lid) was “vellus hairs are increased in number, appear more robust and are much longer and thicker in treated than in control eyes”. Under setting [1], the Length of lashes result is reported as “Increased length of eyelashes is regularly observed” and the Number of lashes result is listed as “Increased numbers of lashes are observed in the treated eye of each patient”. Moreover, the “Perpendicular angulation of hairs” value (lash-like hairs above the lash line and in the medial and lateral canthal areas) was “the hairs are much longer, thicker and heavier. They also leave the surface of the skin at a more acute angle”.
